SMILES strings stand for the structures. “And” between values parts separate entries of the source, which are not always exact repeats. Equal values may be shown once.

For experiment [1], the system named is human CYP51. The settings on record: cited from earlier work.
For experiment [2], the system named is T. cruzi CYP51. As to conditions: 2-fold molar excess over the enzyme ref 61; cited from earlier work.
Experiment [3] concerns the target T1, A. castellanii CYP51 (Acanthamoeba castellanii, UniProt L8GJB3, V2A).
T1 sequence (L8GJB3 1-486 V2A): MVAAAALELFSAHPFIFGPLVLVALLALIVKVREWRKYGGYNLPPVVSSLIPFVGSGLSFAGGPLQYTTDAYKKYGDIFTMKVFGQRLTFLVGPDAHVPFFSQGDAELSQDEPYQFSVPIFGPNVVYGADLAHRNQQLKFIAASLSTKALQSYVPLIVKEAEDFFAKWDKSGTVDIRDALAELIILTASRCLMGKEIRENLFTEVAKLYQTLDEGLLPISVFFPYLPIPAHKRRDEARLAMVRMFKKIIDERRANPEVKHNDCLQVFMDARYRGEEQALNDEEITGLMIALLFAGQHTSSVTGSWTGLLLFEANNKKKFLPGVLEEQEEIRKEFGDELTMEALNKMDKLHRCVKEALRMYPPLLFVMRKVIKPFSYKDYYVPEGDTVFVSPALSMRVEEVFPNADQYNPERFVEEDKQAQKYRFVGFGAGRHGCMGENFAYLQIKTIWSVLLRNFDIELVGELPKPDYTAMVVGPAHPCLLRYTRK
T1 sequence (P00388 2-678 partner): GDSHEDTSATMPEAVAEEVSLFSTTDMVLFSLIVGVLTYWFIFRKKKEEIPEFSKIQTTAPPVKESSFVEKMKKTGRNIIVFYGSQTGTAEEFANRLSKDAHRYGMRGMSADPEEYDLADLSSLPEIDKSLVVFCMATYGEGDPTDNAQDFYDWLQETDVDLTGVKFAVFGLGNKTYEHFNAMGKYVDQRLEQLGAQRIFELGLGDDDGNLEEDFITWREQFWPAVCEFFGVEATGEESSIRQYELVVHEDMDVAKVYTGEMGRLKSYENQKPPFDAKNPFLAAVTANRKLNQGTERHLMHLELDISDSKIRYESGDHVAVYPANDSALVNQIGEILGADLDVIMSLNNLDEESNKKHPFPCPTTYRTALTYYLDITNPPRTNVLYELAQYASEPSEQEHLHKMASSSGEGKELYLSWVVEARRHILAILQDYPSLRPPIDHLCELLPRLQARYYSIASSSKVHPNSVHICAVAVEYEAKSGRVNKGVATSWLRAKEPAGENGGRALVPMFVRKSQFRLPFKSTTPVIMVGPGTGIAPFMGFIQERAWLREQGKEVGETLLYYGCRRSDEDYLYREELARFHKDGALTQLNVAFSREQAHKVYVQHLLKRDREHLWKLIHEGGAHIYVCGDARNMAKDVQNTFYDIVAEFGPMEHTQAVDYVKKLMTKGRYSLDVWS
The settings on record: full-length enzyme, type I spectral response.

Experiment [4] has as its target T1, A. castellanii CYP51. The settings on record: obtusifoliol over lanosterol.

Consider `O[C@@](Cn1cnnn1)(c1ccc(F)cc1F)C(F)(F)c1ccc(-c2ccc(OCC(F)(F)F)cc2)cn1` [VT1161, (R)-2-(2,4-difluorophenyl)-1,1-difluoro-3-(lH-tetrazol-1-yl)-1-(5-(4-(2,2,2-trifluoroethoxy)phenyl)pyridin-2-yl)propan-2-ol], for which, in experiment [1], the “binding to human CYP51” value was “does not bind”. Further, the “inhibition of T. cruzi CYP51” value in experiment [2] is ~ 95%.
For the compound `CC(C)=CCC[C@@H](C)[C@H]1CC[C@@]2(C)C3=C(CC[C@]12C)[C@@]1(C)CC[C@H](O)C(C)(C)[C@@H]1CC3` [lanosterol], the “low- to high-spin transition in the heme iron” value in experiment [3] is about 15%.
For `C=C(CC[C@@H](C)[C@H]1CC[C@@]2(C)C3=C(CC[C@]12C)[C@@]1(C)CC[C@H](O)[C@@H](C)[C@@H]1CC3)C(C)C` [obtusifoliol], the “fold higher catalytic efficiency than for lanosterol (substrate preference)” value in experiment [4] is ~ 100 fold and 100 fold. Moreover, the “low- to high-spin transition in the heme iron” value in experiment [3] is listed as ~ 60%.

(Values after publication PMC11089504 (Journal of medicinal chemistry, 2024).)
